Where a name gives a salt, the structure may show the parent alone.
Assays:
GRB2 = GRB2 (Homo sapiens, UniProt P62993); test: biochemical; parameters: Surface plasmon resonance screen of compounds binding to GRB2, KD
Source text: To further validate the universal impact of TRKA‐GRB2 axis‐targeted molecular in enhancing CL expression and ameliorating PD, we employed Surface Plasmon Resonance (SPR) technology^[ [58] ^] to screen compounds that bind to GRB2 (Figure 8a). Subsequently, we identified 11 compounds with a KD value at the […] (Table S9, Supporting Information). The viability of SH‐SY5Y cells exposed to mpp+ or 6‐OHDA increased upon treatment with TDF and [compound left out] (Figure S13a and b, Supporting Information). TDF acts as a prodrug of tenofovir, a nucleotide reverse transcriptase inhibitor.^[ [59] ^] On the other hand, [compound left out] is specially formulated for ophthalmological steroid‐based treatments.^[ [60] ^] Considering its oral administration capability, we selected TDF for further research (Figure S13c and d, Supporting Information). TDF facilitated the clearance of overexpressed A53T‐αSyn in SH‐SY5Y cells (Figure S13e and f, Supporting Information) and promoted the interaction between GRB2 and TRKA without affecting the interaction between GRB2 and EGFR in these cells (Figure 8b–d). Treatment with TDF enhanced CRLS1 expression and restored the decreased mitochondrial CL levels caused by A53T‐αSyn in SH‐SY5Y cells. However, knockdown of GRB2 or TRKA in SH‐SY5Y cells attenuated TDF‐induced effect (Figure 8e–g). Moreover, TDF increased TRKA phosphorylation, ERK phosphorylation, and CRLS1 expression, while GW441756 […] these changes (Figure S13g–j, Supporting Information). When SCH772984 was employed, it blocked the ability of TDF to increase ERK phosphorylation and CRLS1 expression (Figure S13k–m, Supporting Information). The impairment of exercise ability was alleviated following TDF (80 mg kg^−1) treatment, resulting in an increase in the distance travelled by A53T‐αSyn‐treated mice (Figure 8h,i). […] Western blotting was performed to evaluate the expression of TRKA and EGFR in cell lysates immunoprecipitated with an anti‐GRB2 antibody (b). Quantification of TRKA levels (c) and EGFR levels (d). e,f) Representative western blot images of CRLS1, GRB2, TRKA in SH‐SY5Y cells treated with TDF (10 µM) or DMSO (0.1%) for 24 h after transfection with Scramble, GRB2 or TRKA siRNAs for 24 h. Quantification of CRLS1 levels (f). g) SH‐SY5Y cells were treated with TDF (10 µM) or DMSO (0.1%) for 24 h after transfection with Scramble, GRB2 or TRKA siRNAs for 24 h. Quantification of mitochondrial CL in SH‐SY5Y cells. Three independent experiments per condition were performed in (b–g). h) Movement track in the open field test. i) Total distance travelled in the open field. j) Time required to descend the pole. k) Time required to fall off the rotarod. (n = 10 mice per group in (h–k). l) Immunohistochemical staining of TH^+ neurons (scale bar = 100 µm). m) Quantification of TH^+ neurons. (n = 3 mice per group in l, m). Data are normalised to those of the DMSO group (c,d) and the Scramble_DMSO group (f). Mean ± standard error of the mean is presented. *p < 0.05, **p < 0.01, ***p < 0.001, ****p < 0.0001, ns, not significant. Student's two‐tailed unpaired t‐test (c,d), two‐way ANOVA with Sidak's multiple comparisons test (f,g,i,j,k and m). Source data are provided in the Source Data file.

[1] = target: T1, Growth Factor Receptor-Bound Protein 2 (GRB2) (Homo sapiens, UniProt P62993); test: bio-layer interferometry (ForteBio Octet); supported by thermal shift assay (CETSA) and LiP-SMap; type: binding
T1 construct: Recombinant His-tagged GRB2 (pET-28a, E. coli)
T1 sequence (P62993 whole entry): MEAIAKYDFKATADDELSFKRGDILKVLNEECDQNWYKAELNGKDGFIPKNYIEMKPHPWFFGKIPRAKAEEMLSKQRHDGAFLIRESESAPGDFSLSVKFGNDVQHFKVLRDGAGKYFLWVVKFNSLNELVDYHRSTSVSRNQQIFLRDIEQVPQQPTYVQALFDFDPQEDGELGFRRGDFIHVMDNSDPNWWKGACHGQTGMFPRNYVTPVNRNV

Chain of GRB2 (P62993 whole entry): as above

Row | SMILES | Kd (GRB2) | Kd [1]
1 | Nc1nc(=O)n([C@@H]2CS[C@H](CO)O2)cc1F [Emtricitabine] | 15.2 nM | –
2 | CCCC(=O)O[C@]1(C(=O)CCl)[C@@H](C)C[C@H]2[C@@H]3CCC4=CC(=O)C=C[C@]4(C)[C@@]3(F)C(=O)C[C@@]21C [Clobetasone butyrate] | 100 nM | –
3 | CC(C)OC(=O)OCOP(=O)(CO[C@H](C)Cn1cnc2c(N)ncnc21)OCOC(=O)OC(C)C [TDF, Tenofovir Disoproxil Fumarate] | 74.3 nM | –
4 | NC(=O)N1c2ccccc2CC(=O)c2ccccc21 [Oxcarbazepine] | 241 nM | –
5 | C/C(=C\CO)CCC[C@H](C)CCC[C@H](C)CCCC(C)C [Phytol] | 1470 nM | –
6 | CC(C)N(CCNC(=O)CN1CCCC1=O)C(C)C [Pramiracetam] | 99.6 nM | –
7 | CC(N)C12CC3CC(CC(C3)C1)C2 (centres unmarked) [Rimantadine] | 160 nM | –
8 | O=C(O)c1ccc2nc(-c3cc(Cl)cc(Cl)c3)oc2c1 [tafamidis] | 3730 nM | –
9 | COC(c1ccccc1)(c1ccccc1)[C@H](Oc1nc(C)cc(C)n1)C(=O)O [Ambrisentan] | 192 nM | –
10 | O=C1c2ccccc2-c2n[nH]c3cccc1c23 [SP600125] | 262 nM | –
11 | CC(C)=CCC[C@](C)(O)[C@H]1CC[C@]2(C)[C@@H]1[C@H](O)C[C@@H]1[C@@]3(C)CC[C@H](O[C@@H]4O[C@H](CO)[C@@H](O)[C@H](O)[C@H]4O[C@@H]4O[C@H](CO)[C@@H](O)[C@H](O)[C@H]4O)C(C)(C)[C@@H]3CC[C@]12C [Rg3, Ginsenoside Rg3] | – | 869 nM

Source: article PMC11497058, “Ginsenoside Rg3 Restores Mitochondrial Cardiolipin Homeostasis via GRB2 to Prevent Parkinson's Disease” (Advanced Science, 2024)
